Reference: patent publication US20050257279A1, “Agouti-related protein deficient cells, non-human transgenic animals and methods of selecting compounds which regulate energy metabolism” (priority 2002, published 2005)
“Also recorded” adds a separate entry of the source.

What was measured:
[1] = system: primary cultures of rat anterior pituitary cells; assay: Rat pituitary growth hormone (GH) release; assay type: cell-based; settings: 15 min incubation
Procedure: Rat Pituitary Growth Hormone (GH) Release: Compound functional activity was evaluated by measuring growth hormone secretion from primary cultures of rat anterior pituitary cells (Small, et al., (1998) Regulatory Peptides 75-76 and 301-307). Cells were isolated from rat pituitaries by enzymatic digestion with 250 μg/mL DNAse 1 and 0.5% trypsin in Hanks' balanced salt solution. The cells were suspended in culture medium and adjusted to a concentration of 1.5×10^5 cells/ml and 1.0 ml of this suspension was placed in each well of a 24-well tray. Cells were maintained in a humidified 5% CO2/95% air atmosphere at 37° C. for 3-4 days. The culture medium consisted of DMEM containing 0.37% NaHCO3, 10% horse serum, 2.5% fetal bovine serum, 1% nonessential amino acids, 1% glutamine, 1% nystatin, and 0.1% gentamicin. Before testing compounds for their capacity to […] GH release, cells were washed twice 1.5 hr before and once more immediately before the start of the experiment with the above culture medium containing 25 mM Hepes (pH 7.4). Compounds were tested in quadruplicate by adding them in 1 ml of fresh medium to each well and incubating them at 37° C. for 15 minutes followed by centrifugation at 2000×g for 15 min to remove any cellular material. The supernatant fluid was assayed for GH by a double antibody radioimmunoassay.

[2] = 4-hour light-phase food intake in mice; assay type: in vivo; settings: human ghrelin 3 μmole/kg i.p.
Source text: Mice were individually housed at approximately one month of age. Regular mouse chow (Teklad 7012: 5.67% kcal from fat; 3.41 kcal/g, Harlan Teklad) was provided as pellet food in wire cage tops containing food hoppers.
Food intake values were reported as means ± standard errors of the means, and analyzed by the two tailed, unpaired Student t test. P values of <0.05 were reported as significant.

CCCCCCCC(=O)OC[C@H](NC(=O)[C@H](CO)NC(=O)CN)C(=O)N[C@@H](Cc1ccccc1)C(=O)N[C@@H](CC(C)C)C(=O)N[C@@H](CO)C(=O)N1CCC[C@H]1C(=O)N[C@@H](CCC(=O)O)C(=O)N[C@@H](Cc1c[nH]cn1)C(=O)N[C@@H](CCC(N)=O)C(=O)N[C@@H](CCCNC(=N)N)C(=O)N[C@H](C(=O)N[C@@H](CCC(N)=O)C(=O)N[C@@H](CCC(N)=O)C(=O)N[C@@H](CCCNC(=N)N)C(=O)N[C@@H](CCCCN)C(=O)N[C@@H](CCC(=O)O)C(=O)N[C@@H](CO)C(=O)N[C@@H](CCCCN)C(=O)N[C@@H](CCCCN)C(=O)N1CCC[C@H]1C(=O)N1CCC[C@H]1C(=O)N[C@@H](C)C(=O)N[C@@H](CCCCN)C(=O)N[C@@H](CC(C)C)C(=O)N[C@@H](CCC(N)=O)C(=O)N1CCC[C@H]1C(=O)N[C@@H](CCCNC(=N)N)C(=O)O)C(C)C [Ghrelin]
EC50 [1]: 0.7 nM | effect on 4-hour food intake ([2]; Agrp-/-, Npy-/- double knockout mice): no effect; also recorded: without effect | stimulation of 4-hour food intake ([2]; wild-type control mice, ad libitum fed, relative to saline): 120% | effect on 4-hour food intake ([2]; wild-type mice, relative to saline): stimulated 4-hour food intake
